Reference: PubChem BioAssay (NCI)
Several values for one entry are separate records, joined by “and”; a condition that tells them apart may be missing. Identical values can stand only once.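 How tested: cells in 96-well plates exposed to compound for 48 hours at five concentrations. GI50 = concentration required for 50% inhibition of growth. TGI: concentration producing complete growth inhibition.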

Legend:
Assay in all cases: growth of human tumour cells (NCI), 48 h
MDA-MB-435 = system: MDA-MB-435
MCF7 breast = system: MCF7 breast
NCI/ADR-RES ovarian = system: NCI/ADR-RES ovarian
OVCAR-5 ovarian = system: OVCAR-5 ovarian
SK-OV-3 ovarian = system: SK-OV-3 ovarian
NCI-H226 lung = system: NCI-H226 lung
SK-MEL-2 melanoma = system: SK-MEL-2 melanoma
CCRF-CEM leukemia = system: CCRF-CEM leukemia
786-0 renal = system: 786-0 renal
SNB-75 CNS = system: SNB-75 CNS
SK-MEL-5 melanoma = system: SK-MEL-5 melanoma

Row | Compound | TGI (MDA-MB-435) | TGI (MCF7 breast) | TGI (NCI/ADR-RES ovarian) | TGI (OVCAR-5 ovarian) | TGI (SK-OV-3 ovarian) | TGI (NCI-H226 lung) | TGI (SK-MEL-2 melanoma) | TGI (CCRF-CEM leukemia) | TGI (786-0 renal) | TGI (SNB-75 CNS) | GI50 (MDA-MB-435) | GI50 (MCF7 breast) | GI50 (NCI/ADR-RES ovarian) | GI50 (OVCAR-5 ovarian) | GI50 (NCI-H226 lung) | GI50 (SK-MEL-2 melanoma) | GI50 (CCRF-CEM leukemia) | GI50 (SNB-75 CNS) | TGI (SK-MEL-5 melanoma)
1 | COc1ccc(OC)c2c1-c1nnnn1CCC2(C)C | > 100 µM | > 100 µM | > 100 µM | > 100 µM | > 100 µM | > 100 µM | > 100 µM | > 100 µM | > 100 µM | > 100 µM | – | – | – | – | – | – | – | – | –
2 | COC(=O)/C=C/c1cc(OC)c2c(c1)C(C(=O)OC)C(c1ccc(O)c(OC)c1)O2 (stereo unspecified) | 4.49 µM and 1.32 µM | > 100 µM and > 69.5 µM and 42.9 µM | > 33.9 µM and 26.6 µM and 12.9 µM | > 100 µM | > 100 µM | > 100 µM and > 88.2 µM and 12.7 µM | > 82.2 µM | – | > 100 µM and > 49.7 µM and 36.3 µM | 4.36 µM and 6.67 µM and 15.2 µM | 1.13 µM and 0.259 µM | 1.9 µM and 2.05 µM and 0.69 µM | 3.4 µM and 2.76 µM and 1.68 µM | 48.8 µM and 55.2 µM and 22.3 µM | 32.9 µM and 10.3 µM and 4.53 µM | 3.16 µM and 3.87 µM and 9.94 µM | 3.4 µM and 3.35 µM and 0.699 µM | 0.91 µM | –
3 | FC(F)(F)c1ccc(N=NN2CCCC2)cc1 | > 100 µM | > 100 µM | – | > 100 µM | > 100 µM | > 100 µM | > 100 µM | > 100 µM | > 100 µM | – | – | – | – | – | – | – | – | – | > 100 µM
4 | O=C(O)COc1cccc2ccccc(=O)c12 | > 100 µM | > 100 µM | > 100 µM | > 100 µM | > 100 µM | > 100 µM | > 100 µM | > 100 µM | > 100 µM | – | – | – | – | – | – | – | – | – | > 100 µM
5 | C=C(C)[C@H]1C=C[C@@H](OC(C)=O)[C@@]2(COC(C)=O)[C@H](OC(=O)CCC)[C@H]3[C@@H](OC(C)=O)[C@@H](C)C[C@]3(O)C(=O)[C@@](C)(OC(C)=O)[C@H]12 | 44.2 µM | > 100 µM | > 100 µM | > 100 µM | – | > 100 µM | > 100 µM | > 100 µM | > 100 µM | > 100 µM | – | – | – | – | – | – | – | – | > 100 µM
6 | COC(=O)c1cc(OCc2cc(OCc3ccc(Br)cc3)cc(OCc3ccc(Br)cc3)c2)cc(OCc2cc(OCc3ccc(Br)cc3)cc(OCc3ccc(Br)cc3)c2)c1 | > 100 µM | > 100 µM | > 100 µM | > 100 µM | > 100 µM | > 100 µM | > 100 µM | – | > 100 µM | > 100 µM | – | – | – | – | – | – | – | – | > 100 µM
7 | CN(C)CCNc1nc2c(c(=O)n(C)c(=O)n2C)n1C | > 100 µM | > 100 µM | > 100 µM | > 100 µM | > 100 µM | > 100 µM | – | > 100 µM | > 100 µM | – | – | – | – | – | – | – | – | – | > 100 µM
8 | NCCCCNCCCNC(=O)c1csc(-c2nc(CCN)sc2Cl)n1 | > 100 µM | > 100 µM | > 100 µM | > 100 µM | > 100 µM | > 100 µM | – | > 100 µM | > 100 µM | > 100 µM | – | – | – | – | – | – | – | – | > 100 µM
9 | CCN(CC)C(=O)N1CN(c2ccccc2)C2(CCN(CCCC3(c4ccc(F)cc4)OCCO3)CC2)C1=O | 38.9 µM | 19.9 µM | 46.4 µM | – | 61.5 µM | 53.5 µM | 33 µM | 45.9 µM | 33.6 µM | 45.3 µM | – | – | – | – | – | – | – | – | 26.4 µM
10 | COC(=O)/C=C/[C@H]1[C@H](C)N1S(=O)(=O)c1ccc(C)cc1 (stereo partly specified) | > 100 µM | > 100 µM | > 100 µM | > 100 µM | > 100 µM | > 100 µM | > 100 µM | > 100 µM | > 100 µM | – | – | – | – | – | – | – | – | – | > 100 µM
11 | NC(=O)NC(=O)c1cccc(C(=O)NC(N)=O)n1 | > 100 µM | > 100 µM | > 100 µM | > 100 µM | > 100 µM | > 100 µM | > 100 µM | > 100 µM | > 100 µM | – | – | – | – | – | – | – | – | – | > 100 µM
12 | Cc1ccc(S(=O)(=O)N/N=C2/C3CC4CCC2C4C3)cc1 (stereo unspecified) | > 100 µM | > 100 µM | > 100 µM | > 100 µM | > 100 µM | > 100 µM | – | – | > 100 µM | > 100 µM | – | – | – | – | – | – | – | – | > 100 µM
13 | CC1=NN(c2cccc(S(=O)(=O)O)c2)C2(C1)SCC(=O)N2c1nc2ccccc2s1 (stereo unspecified) | > 100 µM | > 100 µM | > 100 µM | > 100 µM | > 100 µM | > 100 µM | > 100 µM | – | > 100 µM | > 100 µM | – | – | – | – | – | – | – | – | > 100 µM
14 | COC(=O)CC(c1ccccc1)C(C#N)(OP1(=O)OC(c2ccccc2)C(C)N1C)c1ccccc1 (stereo unspecified) | > 100 µM | > 100 µM | > 100 µM | > 100 µM | > 100 µM | – | 92.6 µM | > 100 µM | > 100 µM | > 100 µM | – | – | – | – | – | – | – | – | 39.8 µM
15 | COc1ccc(/C=C2/C(=O)C(c3ccccc3)N(c3ccccc3)C2=O)cc1OC (stereo unspecified) | > 10 µM | > 10 µM | > 10 µM | > 10 µM | > 10 µM | > 10 µM | > 10 µM | > 10 µM | > 10 µM | – | – | – | – | – | – | – | – | – | 0.307 µM
16 | CSc1cc(Cl)c(C)cc1S(=O)(=O)NC(=O)NNc1cnc2ccccc2n1 | > 100 µM | > 100 µM | > 100 µM | > 100 µM | > 100 µM | > 100 µM | > 100 µM | > 100 µM | > 100 µM | – | – | – | – | – | – | – | – | – | > 100 µM
17 | COC1=C2C[C@](OC)(C#CC=CC#CC2O)CC1(C)C (stereo partly specified) | > 100 µM | > 100 µM | > 100 µM | > 100 µM | – | > 100 µM | – | > 100 µM | > 100 µM | > 100 µM | – | – | – | – | – | – | – | – | > 100 µM
18 | CN1CCN(C(=S)N(C(=O)c2ccc(Cl)cc2)C2CCCCC2)CC1 | > 100 µM | > 100 µM | – | > 100 µM | – | > 100 µM | > 100 µM | > 100 µM | > 100 µM | 85.2 µM | – | – | – | – | – | – | – | – | > 100 µM
19 | CC(=O)Oc1ccc(C2SCc3nc4ccccc4n32)cc1 (stereo unspecified) | 59.4 µM | > 100 µM | 51.6 µM | > 100 µM | 95.3 µM | – | 80.2 µM | > 100 µM | > 100 µM | 77.2 µM | – | – | – | – | – | – | – | – | > 100 µM
20 | CSc1nnc2n1-c1ccccc1SCC2 | – | – | – | – | > 100 µM | > 100 µM | > 100 µM | > 100 µM | > 100 µM | > 100 µM | – | – | – | – | – | – | – | – | –
21 | CN=C(NC#N)NCc1ccccc1 | – | – | – | > 100 µM | > 100 µM | > 100 µM | > 100 µM | > 100 µM | > 100 µM | > 100 µM | – | – | – | – | – | – | – | – | > 100 µM
